Measurements published in PMC8538301, “Structurally Diverse Polycyclic Salicylaldehyde Derivative Enantiomers from a Marine-Derived Fungus Eurotium sp. SCSIO F452” (Marine Drugs, 2021).

Experiments:
[1] = tested on: SF-268 (human glioblastoma carcinoma); experiment: Cytotoxicity assay (SRB); type: cell-based; settings: SF-268 cells, mean ± SD
Protocol: (§1) The cells of SF-268 (human glioblastoma carcinoma), MCF-7 (breast cancer), HepG-2 (liver cancer), and A549 (lung cancer) were purchased from Stem Cell Bank, Chinese Academy of Sciences. The cells were cultured in DMEM medium (Gibco) containing 10% fetal bovine serum (Gibco) at 37 °C in a humidified atmosphere with 5% (v/v) CO2. The cells were incubated in cultural flasks until sub-confluent (~80%). Then, cells (180 μL) with a density of 3 × 10^4 cells/mL of media were seeded onto 96-well plates and incubated for 24 h at 37 °C, 5% CO2. Subsequently, 20 μL of different concentrations of compounds ranging from 1 to 128 μM in DMSO were added to each plate well. Equal volume of DMSO was used as a negative control. The plates were further incubated for 72 h. After incubation, cell monolayers were fixed with 50% (wt/v) trichloroacetic acid (50 μL) and stained for 30 min with 0.4% (wt/v) SRB dissolved in 1% acetic acid. Unbound dye was removed by washing repeatedly with 1% acetic acid. The protein-bound dye was dissolved in 10 mM Tris base solution (200 µL) for OD determination at 570 nm using a microplate reader. […] All data were obtained in triplicate and presented as means ± SD. IC50 values were calculated with the Sigma Plot 10.0 software (Systat Software Inc., CA, USA) using a non-linear curve-fitting method.

A549 (lung cancer) = experiment: Cytotoxicity assay (SRB); type: cell-based, human; settings: A549 cells, mean ± SD
Protocol: as §1

HepG2 (liver cancer) = experiment: Cytotoxicity assay (SRB); type: cell-based, human; settings: HepG2 cells, mean ± SD
Protocol: as §1

MCF-7 (breast cancer) = experiment: Cytotoxicity assay (SRB); type: cell-based, human; settings: MCF-7 cells, mean ± SD
Protocol: as §1

[2] = Antioxidative assay (DPPH radical scavenging); settings: 12 h, 517 nm
Protocol: Sample stock solutions (10 mM) were diluted to final concentrations of 2, 4, 8, 16, 32, 64, and 128 μM in ethanol. Then, 100 μL 0.2 mmol/L DPPH ethanol solution was added to 100 μL sample solutions of different concentrations on 96-well plates, and allowed to react at room temperature. […] After 12 h, the absorbance values were measured at 517 nm and converted into the percentage antioxidant activity (AA) using the following formula: AA(%) = [1 − (Asample − Ablank)/Acontrol] × 100%. All data were obtained in triplicate and are presented as means ± S.D. EC50 values were calculated with the SigmaPlot 10.0 software (Systat Software Inc., CA, USA) using a non-linear curve-fitting method.

α-glucosidase = experiment: α-Glucosidase inhibitory activity assay (PNPG substrate); type: biochemical; settings: pH 6.8, 37 °C
Protocol: Inhibitory α-glucosidase activities were determined spectrophotometrically in a 96-well microtiter plate based on p-nitrophenyl-α-D-glucopyranoside (PNPG) as a substrate. In brief, 20 μL 0.2 U/mL α-glucosidase enzyme solution, 50 μL 0.1 mol/L PBS (pH 6.8), and 10 μL of the test compounds in DMSO were mixed and preincubated at 37 °C prior to initiation of the reaction by adding the substrate. After 10 min of preincubation, 20 μL 5 mmol/L PNPG solution was added and then incubated together at 37 °C. After 15 min of incubation, 20 μL 0.2 mol/L Na2CO3 was added to the test tubes to stop the reaction. The absorbance values were measured at 405 nm and converted into percentage inhibitory activity using the following formula: AA(%) = [1 − Asample/(Anegative control − Ablank)] × 100%. […] All data were obtained in triplicate and presented as means ± SD. IC50 values were calculated with the Sigma Plot 10.0 software using a non-linear curve-fitting method.

SMILES | EC50 [2] [µM] | IC50 (α-glucosidase) [µM] | IC50 ([1]; Homo sapiens, SF-268, 72 h) [µM] | IC50 (A549 (lung cancer); Homo sapiens, A549, 72 h) [µM] | IC50 (HepG2 (liver cancer); Homo sapiens, HepG2, 72 h) [µM] | IC50 (MCF-7 (breast cancer); Homo sapiens, MCF7, 72 h) [µM] | IC50 ([1]; 72 h) [µM] | IC50 (A549 (lung cancer); 72 h) [µM] | IC50 (HepG2 (liver cancer); 72 h) [µM] | IC50 (MCF-7 (breast cancer); 72 h) [µM]
CCCCCCCC1(O)CC(C=CC(C)(C)O)=CC1=O (single isomer, unassigned; (+)) [(+)-4, Euroticin I] | > 100 | > 100 | – | – | – | – | 12.7 ± 0.46 | 16.9 ± 0.92 | 19.9 ± 5.09 | 20.5 ± 1.54
CCCCCCCC1(O)CC(C=CC(C)(C)O)=CC1=O (single isomer, unassigned; (-)) [(−)-4, Euroticin I] | > 100 | > 100 | 23.7 ± 3.88 | 22.2 ± 1.54 | 19.5 ± 2.7 | 23.6 ± 2.99 | – | – | – | –
CCCCC[C@H]1O[C@]2(C)Cc3c4c(cc(O)c3[C@H]1O2)C=CC(C)(C)O4 [(+)-1, Euroticin F] | 42.3 ± 3.85 | > 100 | 21.9 ± 0.96 | 33.8 ± 0.34 | 28 ± 1.68 | 27.2 ± 2.03 | – | – | – | –
CCCCC[C@@H]1O[C@@]2(C)Cc3c4c(cc(O)c3[C@@H]1O2)C=CC(C)(C)O4 [(−)-1, Euroticin F] | 41.4 ± 2.68 | > 100 | 37.3 ± 2.46 | 33.4 ± 1.5 | 30.7 ± 3.55 | 28 ± 1.57 | – | – | – | –
COc1cccc2c1C(=O)c1c(O)c3c(c(O)c1C2=O)C[C@@](O)(C(=O)CO)C[C@@H]3O[C@H]1C[C@H](N)[C@H](O)[C@H](C)O1 [Adriamycin, reference compound] | – | – | 1.19 ± 0.03 | 1.73 ± 0.04 | 1.99 ± 0.07 | 2.02 ± 0.04 | – | – | – | –

The next lines start with results.

EC50 [2] [µM] | IC50 (α-glucosidase) [µM] | SMILES | IC50 ([1]; Homo sapiens, SF-268, 72 h) [µM] | IC50 (A549 (lung cancer); Homo sapiens, A549, 72 h) [µM] | IC50 (HepG2 (liver cancer); Homo sapiens, HepG2, 72 h) [µM] | IC50 (MCF-7 (breast cancer); Homo sapiens, MCF7, 72 h) [µM] | IC50 ([1]; 72 h) [µM] | IC50 (A549 (lung cancer); 72 h) [µM] | IC50 (HepG2 (liver cancer); 72 h) [µM] | IC50 (MCF-7 (breast cancer); 72 h) [µM]
> 100 | 16.3 ± 1.68 | CCCCCC1(O)Cc2c3c(cc(O)c2C1=O)C=CC(C)(C)O3 (racemic) [(±)-3, Euroticin H] | > 100 | > 100 | > 100 | > 100 | – | – | – | –
> 100 | > 100 | CC(C)=CCc1cc2c(c(C=O)c1O)C1C(O)CCC1C(C)O2 (single isomer, unassigned; (-)) [(−)-5, eurotirumin] | 35.6 ± 1.79 | 42.6 ± 1.43 | 40.7 ± 2.76 | 50.7 ± 2.48 | – | – | – | –
76.9 ± 0.99 | 38 ± 2.73 | CO[C@H]1O[C@@H]2CC[C@@H]([C@H](C)O)[C@@H]2c2c(O)cc(CC=C(C)C)c(O)c21 [(+)-2, Euroticin G] | > 100 | > 100 | > 100 | > 100 | – | – | – | –
> 100 | 89.4 ± 7.86 | CC(C)=CCc1cc2c(c(C=O)c1O)[C@@H]1[C@H](CC[C@@H]1O)[C@@H](C)O2 [(+)-5, eurotirumin] | 22 ± 0.88 | 47.3 ± 0.71 | 41.2 ± 2.63 | 55.6 ± 4.85 | – | – | – | –
77.1 ± 1.88 | 79.7 ± 1.74 | CO[C@@H]1O[C@H]2CC[C@H]([C@@H](C)O)[C@H]2c2c(O)cc(CC=C(C)C)c(O)c21 [(−)-2, Euroticin G] | > 100 | > 100 | > 100 | > 100 | – | – | – | –
11.3 ± 0.56 | – | O=C1O[C@H]([C@@H](O)CO)C(O)=C1O [Ascorbic acid, reference compound] | – | – | – | – | – | – | – | –
